# Test results as given in patent publication US20220388969A1, “SUBSTITUTED 3,4-DIHYDROQ[…] THE TREATMENT AND PROPHYLAXIS OF HEPATITIS B VIRUS INFECTION” (priority 2019, published 2022).
# pIC50: −log10 of the molar value.
# Tested on: HBeAg level in HepDES19 cells (surrogate marker for HBV cccDNA)
# Test: Engineered HepDES19 primary screen assay (HBeAg as surrogate marker for cccDNA)
# Type: cell-based
# Settings: Hepatitis B virus, 120 h; HepDES19 cells, 5 days incubation with compound, HBeAg ELISA; read-out: IC50 (HBeAg level, HepDES19 primary screen assay)
# Text: The assay was employed to screen for novel cccDNA inhibitors. HepDES19 is a cccDNA-producing cell line. In this cell line, HBeAg in the cell culture supernatant as surrogate marker, as HBeAg production depends on cccDNA level and activity. HepDES19 is an engineered cell line which contains a 1.1 unit length HBV genome, and pgRNA transcription from the transgene is controlled by Tetracycline (Tet). In the absence of Tet, pgRNA transcription will be induced, but HBV e antigen (HBeAg) could not be produced from this pgRNA due to very short leader sequence before the HBeAg start codon and the start codon is disrupted. Only after cccDNA is formed, the missing leader sequence and start codon mutation would be restored from the 3′-terminal redundancy of pgRNA, and then HBeAg could be synthesized. Therefore, HBeAg could be used as a surrogate marker for cccDNA (Zhou, T. et al., Antiviral Res.(2006), 72(2), 116-124; Guo, H. et al., J. Virol. (2007), 81(22), 12472-12484).
# HepDES19 cells were seeded at 2×10^6 cells per T150 flask and cultured with the culture medium (Dulbecco's Modified Eagle Medium: Nutrient Mixture F-12 [DMEM-F12, Gibco Cat. 11320-82], 10% Fetal Bovine Serum [FBS, Clontech Cat. 631101], 0.1 mM Non-Essential Amino Acids Solution [NEAA, Gibco Cat. 11140-050], 50 μg/mL Penicillin-Streptomycin [PS, Invitrogen Cat. 15140-163], 500 μg/mL Geneticin [G418, Invitrogen Cat. 10131-027]) containing 3 μg/mL Tet (Sigma, Cat. 87128) for 5 days. Cells were then seeded at 4×10^6 cells per T150 in the same culture medium as described above in the absence of Tet for 8 days. Cells were then harvested and frozen at density of 2×10^6 cells per mL. For compound testing, the frozen cells were thawed and seeded into 96-well plates at a density of 6 ×10^4 cells per well. At 24hours after seeding, half log serial dilutions of compounds made with Dimethyl sulfoxide (DMSO, Sigma, Cat. D2650) were further diluted with the same culture medium as described above before they were added to the cells to reach desired final compound concentrations and 1% DMSO concentration. Plates were then incubated at 37° C. for another 5 days before measurement of HBeAg level and cell viability. Intracellular HBeAg level were measured with enzyme-linked immunosorbent assay (ELISA) kit (Shanghai Kehua Diagnostic Medical Products Co., Ltd). Cell viability was assessed using Cell Counting Kit-8 (DonJindo, Cat. CK04-20). IC50 values were derived from the dose-response curve using 4 parameter logistic curve fit method.
# The compounds of the present invention were tested for their capacity to inhibit extracellular HBeAg level as described herein.
row,SMILES,pIC50
1,"CC1(C)NC(c2ccc(Br)cc2)=Nc2c(Cl)cccc21 [Example 34, 2-(4-bromophenyl)-8-chloro-4,4-dimethyl-3H-quinazoline hydrofluoride]",5.24
2,"CC1c2ccc(C(F)(F)F)cc2N=C(c2cccc(Br)c2)N1CCO (stereo not drawn) [Example 25, 2-[2-(3-bromophenyl)-4-methyl-7-(trifluoromethyl)-4H-quinazolin-3-yl]ethanol]",5.02
3,"CC1c2cccc(Cl)c2N=C(c2ccc(OCCOCC(=O)O)cc2)N1C (stereo not drawn) [Example 26, 2-[2-[4-(8-chloro-3,4-dimethyl-4H-quinazolin-2-yl)phenoxy]ethoxy]acetic acid]",5.26
4,"COc1ccc(C2=Nc3c(Cl)cccc3C(C(N)=O)N2)cc1 (stereo not drawn) [Example 14, 8-chloro-2-(4-methoxyphenyl)-3,4-dihydroquinazoline-4-carboxamide]",5.61
5,"CC1NC(c2cccc(Br)c2)=Nc2cc(C(F)(F)F)ccc21 (stereo not drawn) [Example 33, 2-(3-bromophenyl)-4-methyl-7-(trifluoromethyl)-3,4-dihydroquinazoline]",6.07
6,"CC1NC(n2cnc(Br)c2)=Nc2cc(C(F)(F)F)ccc21 (stereo not drawn) [Example 30, 2-(4-bromoimidazol-1-yl)-4-methyl-7-(trifluoromethyl)-3,4-dihydroquinazoline]",6.11
7,"Clc1cccc2c1N=C(c1ccc(Br)cc1)NC2C1CC1 (stereo not drawn) [Example 35, 2-(4-bromophenyl)-8-chloro-4-cyclopropyl-3,4-dihydroquinazoline]",6.39
8,"CC1NC(c2ccc(Br)cc2OCCOC2CC(C(=O)O)C2)=Nc2c(Cl)cccc21 (stereo not drawn) [Example 37, 3-[2-[5-bromo-2-(8-chloro-4-methyl-3,4-dihydroquinazolin-2-yl)phenoxy]ethoxy]cyclobutanecarboxylic Acid]",5.71
9,"CC1(C(=O)O)NC(c2ccc(Br)cc2)=Nc2c(Cl)cccc21 (stereo not drawn) [Example 11, 2-(4-bromophenyl)-8-chloro-4-methyl-3H-quinazoline-4-carboxylic Acid]",6.89
10,"O=C(C1NC(c2ccc(Br)cc2)=Nc2cc(C(F)(F)F)ccc21)N1CCOCC1 (stereo not drawn) [Example 17, [2-(4-bromophenyl)-7-(trifluoromethyl)-3,4-dihydroquinazolin-4-yl]-morpholino-methanone]",5.78
11,"O=C(O)C1NC(c2ccc(N3CCCC3)nc2)=Nc2c(Cl)cccc21 (stereo not drawn) [Example 10, 8-chloro-2-(6-pyrrolidin-1-yl-3-pyridyl)-3,4-dihydroquinazoline-4-carboxylic Acid]",7.30
12,"CC1NC(c2ccc(OCCO[C@H]3C[C@@H](C(=O)O)C3)cc2)=Nc2c(Cl)cccc21 (stereo partly drawn) [Example 21, cis-3-[2-[4-(8-chloro-4-methyl-3,4-dihydroquinazolin-2-yl)phenoxy]ethoxy]cyclobutanecarboxylic Acid]",5.99
13,"OCC1NC(c2ccc(Br)cc2)=Nc2c(Cl)cccc21 (stereo not drawn) [Example 38, [2-(4-bromophenyl)-8-chloro-3,4-dihydroquinazolin-4-yl]methanol]",5.27
14,"CC1NC(c2ccc(OCCOCC(=O)O)cc2)=Nc2c(Cl)cccc21 (stereo not drawn) [Example 23, 2-[2-[4-(8-chloro-4-methyl-3,4-dihydroquinazolin-2-yl)phenoxy]ethoxy]acetic Acid]",5.75
15,"CC1NC(c2ccc(OCCO)cc2)=Nc2c(Cl)cccc21 (stereo not drawn) [Example 28, 2-[4-(8-chloro-4-methyl-3,4-dihydroquinazolin-2-yl)phenoxy]ethanol]",5.32
16,"CCOc1ccc(C2=Nc3c(Cl)cccc3C(C(=O)O)N2)cn1 (stereo not drawn) [Example 9, 8-chloro-2-(6-ethoxy-3-pyridyl)-3,4-dihydroquinazoline-4-carboxylic Acid]",6.35
17,"COc1ccc2c(c1)CCN(C1=Nc3c(Cl)cccc3C(C)N1)C2=O (stereo not drawn) [Example 29, 2-(8-chloro-4-methyl-3,4-dihydroquinazolin-2-yl)-6-methoxy-3,4-dihydroisoquinolin-1-one]",7.57
18,"NC(=O)C1NC(c2cccc(Br)c2)=Nc2cc(C(F)(F)F)ccc21 (stereo not drawn) [Example 15, 2-(3-bromophenyl)-7-(trifluoromethyl)-3,4-dihydroquinazoline-4-carboxamide]",6.59
19,"CC1c2ccc(C(F)(F)F)cc2N=C(c2cccc(Br)c2)N1C (stereo not drawn) [Example 24, 2-(3-bromophenyl)-3,4-dimethyl-7-(trifluoromethyl)-4H-quinazoline]",5.68
20,"COc1ccc(C2=Nc3c(Cl)cccc3C(C(=O)O)N2)cn1 (stereo not drawn) [Example 8, 8-chloro-2-(6-methoxy-3-pyridyl)-3,4-dihydroquinazoline-4-carboxylic Acid]",5.04
21,"CC1NC(c2ccc(OCCOCC(=O)O)cc2)=Nc2cc(C(F)(F)F)ccc21 (stereo not drawn) [Example 20, 2-[2-[4-[4-methyl-7-(trifluoromethyl)-3,4-dihydroquinazolin-2-yl]phenoxy]ethoxy]acetic Acid]",5.70
22,"OCCOc1ccc(C2=Nc3c(Cl)cccc3CN2)cc1 [Example 27, 2-[4-(8-chloro-3,4-dihydroquinazolin-2-yl)phenoxy]ethanol]",4.94
23,"CC1NC(c2nc(Br)cs2)=Nc2c(Cl)cccc21 (stereo not drawn) [Example 31, 4-bromo-2-(8-chloro-4-methyl-3,4-dihydroquinazolin-2-yl)thiazole]",5.69

# Same assay, conditions: Hepatitis B virus, HepDES19, 120 h, read-out: IC50 (HBeAg level, HepDES19 primary screen assay)
row,SMILES,pIC50
1,"O=C(NCCCl)C1NC(c2ccc(Br)cc2)=Nc2c(Cl)cccc21 (stereo not drawn) [Example 18, 2-(4-bromophenyl)-8-chloro-N-(2-chloroethyl)-3,4-dihydroquinazoline-4-carboxamide]",5.59
